{"source": "patent US3932664A", "about": "“Substituted phenoxyalkyl quaternary ammonium compounds as antiarrhythemic agents” (priority 1974, dated 1976)", "key": {"[1]": {"system": "arrhythmia after experimental coronary artery occlusion in dogs", "experiment": "abnormal complexes after experimental occlusion of the anterior descending coronary artery in dogs", "assay_type": "in vivo", "details": "dog", "procedure": "An experimental occlusion of the anterior descending coronary artery is produced in dogs according to the method of Harris, Circulation 1, 1318 (1950). Following surgery the animals are given a penicillin-streptomycin preparation and allowed to recover for 18-24 hours. The animals are given 3 milligrams per kilogram of morphine sulfate as an analgetic and sedative to allow handling. Electrocardiograms are recorded both before and after administration of [2-([…])ethyl]dimethyl-(2-methylallyl)ammonium chloride to the test animals. The incidence of abnormal complexes (premature ventricular contractions and atrioventricular nodal beats) per minute is recorded as a percentage of total beats per minute. In one such operation the test compound is administered by intravenous infusion at rates of 1, 2, 2 and 2 milligrams per kilogram at intervals of 10 to 15 minutes. […] Following the last infusion of test compound the heartbeat rate is observed to have decreased from a rate of over 160 beats per minute prior to the first infusion to about 90-100 beats per minute. The incidence of ectopic beats at this time has decreased from a pre-treatment level of 100 percent abnormal beats per minute to below 60 percent, reaching zero (100 percent normal beats) within about 10 minutes after the last infusion. The lower heartbeat rate and low incidence of abnormal beats (generally 0 to 20 percent of the total beats per minute are abnormal) is found to persist for 2 hours following the last infusion of test compound, at which time the experiment is terminated.\nIn similar operations, the same test compound is infused at dosages of 1, 2 and 4 milligrams per kilogram at intervals over a forty minute period. Prior to infusion the incidence of abnormal beats is 100 percent. […] The incidence of abnormal beats is found to remain at zero with occasional brief periods of slight arrhythmia (2-5 percent abnormal beats) for 2.5 hours following the last dosage of the test compound, when recording is terminated.\nIn a similar operation the [2-([…])ethyl]dimethyl(2-methylallyl)ammonium chloride is administered orally in gelatin capsules. The test compound is administered in multiple dosages of 30, 30 and 50 milligrams per kilogram over a period of 150 minutes. […] Antiarrhythmic effects continue to be observed until the recording is terminated 140 minutes after the last dose of test compound."}, "[2]": {"experiment": "blood and heart levels in rabbits after oral and intravenous administration", "assay_type": "in vivo", "details": "rabbit"}, "[3]": {"system": "ouabain-induced ventricular tachycardia in dogs", "experiment": "conversion of ouabain-induced ventricular tachycardia to normal sinus rhythm in anesthetized dogs", "assay_type": "in vivo, dog", "details": "intravenous; for mean duration of sinus rhythm: group of three dogs", "from_the_text": "Ventricular tachycardia is produced in dogs in a method similar to the method of Lucchesi and Hardman (J. Pharmacol. Exptl. Therap., 132, 372, 1961) by the administration of ouabain. In such operations, a dog is anesthetized by the intravenous administration of pentobarbital sodium at a dosage rate of 30 milligrams per kilogram. A femoral artery is cannulated with polyethylene tubing for measurements of blood pressure. A femoral vein is similarly cannulated for administration of ouabain and administration of the test compound. Hypodermic needle electrodes are employed for recording electrocardiograms. In such operations, ouabain is administered intravenously by infusion at a constant rate via the cannulated femoral vein. The infusion rate is 35 micrograms of ouabain per kilogram of animal body weight per hour. Within 1 to 1.5 hours following the start of the infusion, a ventricular tachycardia is seen to develop.\nAfter ventricular tachycardia is observed, a test compound is administered intravenously by administration of varying amounts of a composition comprising 50 milligrams of the test compound as a sterile solution in 10 milliliters of water containing 0.9 percent sodium chloride. Each dose is administered slowly over a period of 15 to 30 seconds. The compound is administered at an initial dosage rate of 0.25 milligram of test compound per kilogram of animal body weight. Blood pressure and electrocardiogram are observed for 5 minutes after administration. When a complete conversion from the arrhythmic condition to normal sinus rhythm is not observed within the 5 minute period, a second dose of 0.50 milligram of the test compound per kilogram is administered by a similar procedure and blood pressure and heartbeat are similarly observed for 5 minutes. When complete conversion of the ventricular tachycardia to normal sinus rhythm is not observed, the dosage is increased two-fold every five minutes until complete conversion is obtained. The animal is then observed and the duration of the period of normal cardiac rhythm produced by administration of the test compound is recorded as the duration of antiarrhythmic activity. The termination of the period of normal activity is marked by the reappearance of ventricular tachycardia or fibrillation as indicated by the electrocardiogram observations. The antiarrhythmic dosage of test compound sufficient to bring about a complete conversion of the cuabain-induced tachycardia, and the duration of the period of normal cardiac activity are set out below.\nThe procedure of Example 26 is repeated, employing the compound of Example 1, [ 2-(4-amino-2,6-dibromophenoxy)-ethyl]-dimethyl(2-methylallyl)ammoniumchloride, as a test compound. In these operations two groups of three dogs each are administered the test compound intravenously at anti-arrhythmic dosage rates of 1 and 2 milligrams per kilogram after ectopic ventricular rhythms have been established by continuous infusion of cuabain."}, "[4]": {"experiment": "acute oral toxicity in rats", "details": "rat, in vivo, single oral dose", "procedure": "(§1) An aqueous solution of [2-(4-amino-2,6-dibromophenoxy)ethyl]dimethyl (2-methylallyl)ammonium chloride is administered orally to several groups of male and female Sprague-Dawley derived rats and male and female Swiss mice (Cox strain). The compound is administered as single oral dosages in varying amounts, and the animals are held to assess toxicity twenty-four hours after administration of the compound."}, "[5]": {"system": "electrically induced ventricular fibrillation in dogs", "experiment": "threshold for electrically induced ventricular fibrillation in electrically paced dogs", "assay_type": "in vivo, dog", "details": "intravenous"}, "[6]": {"experiment": "acute oral toxicity in mice", "details": "mouse, in vivo, single oral dose", "procedure": "as §1"}, "[7]": {"details": "iv infusion, following the first infusion (1 mg/kg)"}}, "data": [{"smiles": "C=C(C)C[N+](C)(C)CCOc1c(Br)cc(N)cc1Br.[Cl-]", "note": "[Example 1, [2-(4-amino-2,6-dibromophenoxy)ethyl]-dimethyl(2-methylallyl)ammonium chloride]", "values": [{"measurement": "time after last infusion to substantially complete conversion to sinus rhythm", "setting": "[1]; infused 1, 2 and 4 mg/kg over forty minutes", "result": "eight"}, {"measurement": "conversion to sinus rhythm", "setting": "[1]; infused 1, 2 and 4 mg/kg over forty minutes, incidence of abnormal beats 100 percent before", "result": "substantially complete conversion to sinus rhythm"}, {"measurement": "time for which incidence of abnormal beats remains at zero (with occasional slight arrhythmia)", "setting": "[1]; infused 1, 2 and 4 mg/kg, following last dosage, recording then terminated", "result": "≥ 2.5", "unit": "h"}, {"measurement": "incidence of abnormal beats", "setting": "[1]; infused 1, 2 and 4 mg/kg, for 2.5 hours following the last dosage", "result": "zero"}, {"measurement": "anti-arrhythmic effects on resumption of recording", "setting": "[1]; infused 1, 2 and 4 mg/kg, recording resumed 215 minutes later", "result": "significant anti-arrhythmic effects are still exhibited"}, {"measurement": "abnormal beats during occasional brief periods of slight arrhythmia", "setting": "[1]; infused 1, 2 and 4 mg/kg, within 2.5 hours following the last dosage", "result": "2-5%"}, {"measurement": "time after last infusion to zero ectopic beats (100 percent normal beats)", "setting": "[1]; iv 1, 2, 2 and 2 mg/kg", "result": "≤ 10", "unit": "min"}, {"measurement": "persistence of lower heartbeat rate and low incidence of abnormal beats", "setting": "[1]; iv 1, 2, 2 and 2 mg/kg, following last infusion, experiment terminated at that time", "result": "≥ 2", "unit": "h"}, {"measurement": "heartbeat rate", "setting": "[1]; iv 1, 2, 2 and 2 mg/kg, following last infusion, over 160 beats per minute prior to first infusion, in beats/min", "result": "90-100"}, {"measurement": "incidence of ectopic beats (percent abnormal beats per minute)", "setting": "[1]; iv 1, 2, 2 and 2 mg/kg, following last infusion, pre-treatment 100 percent", "result": "below 60%"}, {"measurement": "incidence of ectopic beats", "setting": "[1]; iv 1, 2, 2 and 2 mg/kg, within about 10 minutes after the last infusion", "result": "zero"}, {"measurement": "change in percentage of abnormal beats per minute", "setting": "[1]; [7]", "result": "concomitant decrease"}, {"measurement": "heart beat rate change", "setting": "[1]; [7]", "result": "marked decrease"}, {"measurement": "antiarrhythmic effects of the second and third doses", "setting": "[1]; oral 30, 30 and 50 mg/kg", "result": "further and more consistent antiarrhythmic effects"}, {"measurement": "time after last dose to periods with less than 10 percent abnormal beats", "setting": "[1]; oral 30, 30 and 50 mg/kg", "result": "about 25 minutes"}, {"measurement": "abnormal beats (periods in electrocardiogram)", "setting": "[1]; oral 30, 30 and 50 mg/kg, beginning about 25 minutes after last dose, interspersed with occasional arrhythmia", "result": "less than 10%"}, {"measurement": "time after last dose over which antiarrhythmic effects continue to be observed", "setting": "[1]; oral 30, 30 and 50 mg/kg, recording then terminated", "result": "≥ 140", "unit": "min"}, {"measurement": "time after first dosage to periods of reduced frequency of abnormal heart beats", "setting": "[1]; oral gelatin capsules, 30, 30 and 50 mg/kg over 150 minutes", "result": 10, "unit": "min"}, {"measurement": "oral absorption", "setting": "[2]", "result": "indicate oral absorption"}, {"measurement": "minimal effective dose", "setting": "[3]; Canis lupus familiaris, iv, dog, dose giving complete conversion of ouabain-induced tachycardia to normal sinus rhythm, read-out: Conversion Dose", "result": 0.5, "unit": "mg/kg"}, {"measurement": "Duration (period of normal cardiac rhythm)", "setting": "[3]; dog, at conversion dose 0.5 mg/kg", "result": 15, "unit": "min"}, {"measurement": "mean duration of sinus rhythm", "setting": "[3]; 1 mg/kg", "result": 12.7, "unit": "min"}, {"measurement": "mean duration of sinus rhythm", "setting": "[3]; 2 mg/kg", "result": 26.5, "unit": "min"}, {"measurement": "conversion of the arrhythmias to sinus rhythm", "setting": "[3]; two groups of three dogs, 1 and 2 mg/kg", "result": "Complete conversion of the arrhythmias to sinus rhythm is observed in all the dogs"}, {"measurement": "LD50 at 24 h", "setting": "[4]; female rats", "result": 725, "unit": "mg/kg"}, {"measurement": "LD50 at 24 h", "setting": "[4]; male rats", "result": 758, "unit": "mg/kg"}, {"measurement": "increase in threshold for electrically induced ventricular fibrillation", "setting": "[5]", "result": "substantial increases"}, {"measurement": "LD50 at 24 h", "setting": "[6]; female mice", "result": 550, "unit": "mg/kg"}, {"measurement": "LD50 at 24 h", "setting": "[6]; male mice", "result": 560, "unit": "mg/kg"}]}]}
